# Earlier results as cited in paper PMC9782211 (Microorganisms, 2022).
# Tested on: hERG channels
# Conditions: cited from earlier work
# From the text: Inhibition of the potassium current flowing through the cardiac hERG ion channel (Kv11.1) has been correlated to life threatening torsades de pointes cardiac arrhythmia. Effects on hERG channel currents have been observed for a number of drugs, including antihistamines, antipsychotics, and many other drugs from nearly all therapeutic areas and chemical classes, and have become a serious safety concern in drug discovery and development. Inhibition of hERG channel currents have also been reported for antibiotics, in particular for macrolides, raising concerns about the cardiac safety of a ...
substance,measurement,value
BeKm-1,block of hERG channels,high affinity
